Experimental data from patent publication US20190070128A1, “USE OF CANNABIDIVARIN IN THE TREATMENT OF AUTISM SPECTRUM DISORDER, ASSOCIATED DISORDERS AND SCHIZOPHRENIA” (GW Research Limited, priority 2016, published 2019).

Legend:
[1] = molecular target: T1, hCB1 (Homo sapiens, UniProt P21554); design: expressed in transfected cells; host or cells: CHO cells expressing hCB1 (membranes); conditions: hCB1-CHO cell membranes; extract compared with purified CBDV; cited from earlier work
[2] = test system: VPA-exposed rats; experiment: sociability and preference for social novelty, 3-chamber apparatus, prenatal VPA model; format: in vivo, rat
Procedure: Pregnant Sprague-Dawley rats (Charles River, Calco, Italy), received a single intraperitoneal injection of 500 mg/kg sodium valproate on the 12.5 day after conception, and control females were injected with physiological saline at the same time. Sodium valproate (Sigma Aldrich, Milan, IT) was dissolved in saline at a concentration of 250 mg/ml.
CBDV was dissolved in ethanol, cremophor and saline (1:1:18). Symptomatic treatment with CBDV at doses of 0.2, 2, 20, and 100 mg/kg/day i.p. was performed starting from PND 34 (early adolescence) till 56 (early adulthood), both in male and female offspring of dams injected with VPA 500 mg/kg (or vehicle) on day 12.5 after conception. At PND 56, a series of behavioural tests was performed in order to assess the effect of chronic CBDV on sociability, social novelty, short-term memory, locomotion and stereotyped/repetitive behaviours.
Sociability and preference for social novelty: These behaviours were investigated in a 3-chamber apparatus which allows for the measurement of social approach and social preference. In brief, animals were placed into a novel arena (80 cm×31.5 cm) composed of three communicating chambers separated by Perspex walls with central openings allowing access to all chambers for 5 min.
Following this acclimatisation period, animals were briefly confined to the central chamber while an unfamiliar rat confined in a small wire cage was placed in one of the outer chambers. An identical empty wire cage was placed in the other chamber. The unfamiliar rat was randomly assigned to either the right or left chamber of the arena. The test animal was then allowed to explore the arena/chambers for a further 5 min. Time spent engaging in investigatory behaviour with the rat was evaluated with the aid of Anymaze program (Ugo Basile, Italy) in order to examine social approach.
To investigate the preference for social novelty, a novel unfamiliar rat was then placed in the empty cage and the test animal was then allowed to explore the arena/chambers for a further 5 min. Time spent engaging in investigatory behaviour with the novel unfamiliar rat was evaluated with the aid of Anymaze program (Ugo Basile, Italy) in order to examine preference for social novelty.

[3] = molecular target: T1, hCB1; conditions: cited from earlier work
[4] = test system: PCP-treated rats; experiment: social interaction test in sub-chronic PCP treated rats; format: in vivo, rat
Procedure: Female hooded-Lister rats were used for this experiment. Rats were housed in groups of 5 under standard laboratory conditions under a 12 hr light: dark cycle, lights on at 0700 hr. Testing was carried out in the light phase.
Rats were randomly assigned to two treatment groups and treated with vehicle, n=20 (distilled water, i.p.) or Phencyclidine hydrochloride (PCP), n=100 (2 mg/kg, i.p. twice daily for 7-days). PCP was dissolved in distilled water. This was followed by a 7-day wash out period before the rats were tested following acute treatment with CBDV, risperidone or vehicle.
Risperidone (0.1 mg/kg) was dissolved in a minimum volume of acetic acid, made up to volume with distilled water and pH adjusted to 6 with 0.1M NaOH and administered via the i.p. route in a volume of 1 ml/kg, 60 min prior to testing.
CBDV at 2, 10 or 20 mg/kg was dissolved in 2:1:17 (Ethanol:Cremofor:Saline 0.9%) and administered via the i.p. route in a volume of 5 ml/kg, 60 min prior to testing.
The social interaction test is performed in an open-field comprising a square box made of Plexiglas (52×52×31 cm) placed 27 cm above the floor on a moveable trolley. The floor of the box is white with black gridlines forming 9 identical squares on it. All other walls are black. A video camera connected to a video recorder and monitor is positioned above the box. The object used for the test consists of a heavy structure made of metal that cannot be displaced by the animals.
The rats were habituated to the test environment and arena prior to the test day. Habituation consists of placing all rats from one cage together in the empty test arena for one hour for three days including the day before the test day.
Pairs of rats, weight matched (15-20 g) and unfamiliar to each other, receiving either no treatment (n=70 “conspecific” rats) or different treatments (PCP and Vehicle; n=10 “tested” rats or PCP+Drug; n=50 “tested” rats) were placed in the test arena together for 10 min and behaviour assessed as described below.
An inanimate object such as an unopened drinks can is also placed in the centre of the arena to measure any differences in interaction of the test animal with an unfamiliar animal as opposed to an unfamiliar object. After each 10 minute trial, the object and arena are cleaned with 10% alcohol in an attempt to remove traces of any olfactory cues. All testing is carried out under standard room illumination levels (70 cd/m2).
Behaviour in both trials was recorded on video for subsequent blind scoring. A behavioural scoring software program (Hindsight, Scientific programming services) is used to score the following parameters: • Investigative sniffing behaviour: sniffing the conspecific's snout or parts of the body including the anogenital region; • Following: rat moves after the conspecific i.e. a vehicle treated rat of the same species, around the arena; • Avoidances: actively turning away when approached by the conspecific animal; • Investigation of object: exploration of object placed in centre of the arena; and • Locomotor activity is recorded by counting the total number of sectors (i.e. lines) crossed by the test rat.

[5] = test system: MeCP2 KO mice; experiment: body weight gain in MeCP2 KO and WT mice; format: in vivo, mouse
Procedure: CBDV was administered daily at the dose of 2, 20 and 200 mg/kg i.p. starting from PND 28 and the following signs were scored every other day: hindlimb clasping (indication of motor imbalance), tremor, gait (measure of coordination), breathing, mobility and general condition.
The CBDV was dissolved in ethanol, cremophor and saline (1:1:18).
Starting from PND 28, mice received a daily intraperitoneal injection of CBDV (or vehicle) at the dose of 2, 20 and 200 mg/kg. Animals were then scored every other day to evaluate the effect of CBDV treatment on motor symptoms (hindlimb clasping, gait, mobility) as well as neurological signs and general conditions (breathing abnormalities, tremors and general condition) present in MeCP2 knockout (KO) mice.

T1 sequence (P21554 whole entry): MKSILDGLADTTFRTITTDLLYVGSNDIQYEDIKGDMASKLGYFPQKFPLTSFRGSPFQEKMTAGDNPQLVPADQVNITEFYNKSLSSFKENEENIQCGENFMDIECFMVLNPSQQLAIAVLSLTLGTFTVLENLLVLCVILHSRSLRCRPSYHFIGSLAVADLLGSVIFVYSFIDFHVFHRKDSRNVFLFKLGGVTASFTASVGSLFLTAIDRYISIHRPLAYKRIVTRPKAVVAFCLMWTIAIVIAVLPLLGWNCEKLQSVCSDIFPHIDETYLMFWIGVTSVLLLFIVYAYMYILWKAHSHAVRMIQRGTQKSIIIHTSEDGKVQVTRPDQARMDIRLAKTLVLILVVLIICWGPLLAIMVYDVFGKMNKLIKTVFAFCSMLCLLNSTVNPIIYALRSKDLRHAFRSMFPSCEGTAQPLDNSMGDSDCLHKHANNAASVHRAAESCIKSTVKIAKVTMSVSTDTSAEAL

Compound: C=C(C)[C@@H]1CCC(C)=C[C@H]1c1c(O)cc(CCC)cc1O [CBDV, Cannabidivarin]
- affinity for CB1 cannabinoid receptors [1]: neither bound with high enough affinity
- deficit in social preference ([2]; 20 mg/kg and 100 mg/kg): reversed
- restoration of social novelty preference ([2]; 20 mg/kg/day i.p. PND 34-56, p<0.001 in males, p<0.01 in females): statistically significant effect
- reduction of preference index in VPA-CBDV animals compared to controls ([2]; VPA alone about 48%): about 13%
- impairment in sociability ([2]; all doses (0.2, 2, 20, 100 mg/kg/day i.p.)): significantly reduced
- affinity for the CB1 receptor [3]: low affinity
- PCP effects on social interaction (sniffing, following, avoiding) [4]: reverse these effects in a statistically significant manner
- time spent avoiding the other rat ([4]; CBDV 20 mg/kg): reduce
- time spent following the other rat ([4]; CBDV 20 mg/kg): increased
- time spent sniffing the other rat ([4]; CBDV 10 and 20 mg/kg): significantly increased
- body weight (area under the curve) ([5]; MeCP2 KO mice): significantly rescued
- reduction in body weight ([5]; MeCP2 KO mice, 2, 20 and 200 mg/kg i.p. daily, PND 28-66): partially prevent
- body weight (area under the curve) ([5]; WT controls): without affecting
